According to ChEMBL document CHEMBL4043280, “Preparation of 5'-deoxy-5'-amino-5'-C-methyl adenosine derivatives and their activity against DOT1L” (Bioorg Med Chem Lett, 2017):

These compounds were tested against Histone-lysine N-methyltransferase, H3 lysine-79 specific (Homo sapiens, UniProt Q8TEK3) (assay: Inhibition of recombinant human N-terminal GST-tagged DOT1L (2 to 416 residues) expressed in Escherichia coli assessed as reduction in histone H3 lysine-N-methyltransferase activity using nucleosomes after 3 hrs in presence of SAM by AlphLisa assay).
Histone-lysine N-methyltransferase, H3 lysine-79 specific, sequence (Q8TEK3 whole entry, the tested form may be a part): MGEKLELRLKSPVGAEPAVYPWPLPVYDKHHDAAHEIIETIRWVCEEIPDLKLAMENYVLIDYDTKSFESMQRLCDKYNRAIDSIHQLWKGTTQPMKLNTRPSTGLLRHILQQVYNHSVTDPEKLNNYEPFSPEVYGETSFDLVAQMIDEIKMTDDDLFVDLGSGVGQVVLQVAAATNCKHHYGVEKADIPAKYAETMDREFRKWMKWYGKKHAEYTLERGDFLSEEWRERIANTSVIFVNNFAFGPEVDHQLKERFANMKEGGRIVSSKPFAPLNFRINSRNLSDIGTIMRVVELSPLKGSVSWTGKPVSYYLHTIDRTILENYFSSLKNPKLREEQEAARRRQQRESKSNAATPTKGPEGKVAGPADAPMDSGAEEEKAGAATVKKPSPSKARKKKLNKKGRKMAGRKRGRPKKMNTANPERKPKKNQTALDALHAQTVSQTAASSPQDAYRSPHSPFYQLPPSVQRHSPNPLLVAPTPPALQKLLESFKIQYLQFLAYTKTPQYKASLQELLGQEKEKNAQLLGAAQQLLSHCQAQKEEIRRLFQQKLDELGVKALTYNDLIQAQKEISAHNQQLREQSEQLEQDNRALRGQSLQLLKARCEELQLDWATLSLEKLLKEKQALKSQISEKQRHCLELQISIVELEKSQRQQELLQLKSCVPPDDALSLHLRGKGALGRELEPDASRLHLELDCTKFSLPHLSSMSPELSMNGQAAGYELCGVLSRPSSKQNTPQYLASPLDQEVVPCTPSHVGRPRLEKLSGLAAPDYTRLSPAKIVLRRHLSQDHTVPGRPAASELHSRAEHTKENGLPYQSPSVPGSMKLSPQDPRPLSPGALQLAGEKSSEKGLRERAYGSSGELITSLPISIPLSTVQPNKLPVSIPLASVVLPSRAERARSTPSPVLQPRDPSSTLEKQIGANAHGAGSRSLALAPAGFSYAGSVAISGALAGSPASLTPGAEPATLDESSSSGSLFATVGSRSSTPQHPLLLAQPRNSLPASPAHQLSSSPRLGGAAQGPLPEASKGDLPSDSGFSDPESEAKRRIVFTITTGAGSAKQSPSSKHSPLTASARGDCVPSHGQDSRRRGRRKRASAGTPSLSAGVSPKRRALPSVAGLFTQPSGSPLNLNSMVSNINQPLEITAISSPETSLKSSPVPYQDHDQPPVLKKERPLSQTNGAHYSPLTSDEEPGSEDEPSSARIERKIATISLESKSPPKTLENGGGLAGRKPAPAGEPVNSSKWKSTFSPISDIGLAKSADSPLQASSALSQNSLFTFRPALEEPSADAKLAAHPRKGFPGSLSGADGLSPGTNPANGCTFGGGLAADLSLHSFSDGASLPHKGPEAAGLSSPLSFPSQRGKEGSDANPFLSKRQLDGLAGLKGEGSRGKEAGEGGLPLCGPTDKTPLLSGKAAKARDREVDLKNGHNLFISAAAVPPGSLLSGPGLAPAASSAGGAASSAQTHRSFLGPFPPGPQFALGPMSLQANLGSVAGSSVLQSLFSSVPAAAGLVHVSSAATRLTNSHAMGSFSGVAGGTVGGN
In the case of CC(C)N(CCCNC(=O)Nc1ccc(C(C)(C)C)cc1)[C@@H](C)[C@H]1O[C@@H](n2cnc3c(N)ncnc32)[C@H](O)[C@@H]1O, the IC50 is reported as 6.34 nM.
For C[C@@H]([C@H]1O[C@@H](n2cnc3c(N)ncnc32)[C@H](O)[C@@H]1O)N(C1CCC1)C1CC(CCc2nc3cc(C(C)(C)C)ccc3[nH]2)C1 (some centres undefined), the IC50 was 1430 nM.
In the case of C[C@H](NC1CC(CCc2nc3cc(C(C)(C)C)ccc3[nH]2)C1)[C@H]1O[C@@H](n2cnc3c(N)ncnc32)[C@H](O)[C@@H]1O (some centres undefined), the IC50 is reported as 690 nM.
In the case of C[C@@H]([C@H]1O[C@@H](n2cnc3c(N)ncnc32)[C@H](O)[C@@H]1O)N(C1CC(CCc2nc3cc(C(C)(C)C)ccc3[nH]2)C1)C1CC(CCc2nc3cc(C(C)(C)C)ccc3[nH]2)C1 (some centres undefined), the IC50 is reported as 2160 nM.
